Results: US10440953B2, “Control of pests in maize by ginkgolides and bilobalide” (priority 2015, dated 2019)
Like-named read-outs stand apart in the source and are kept apart here.

Experiments:
Assay type in all cases: in vivo
[1] = test system: Nezara viridula; experiment: Corn seed treatment, damage protection against Nezara viridula (Example-3); conditions: 4th instar N. viridula, assessed 10DAT
Protocol: Ginkgolide A was dissolved in DMSO and applied to corn seeds at rates of 1.0 and 0.5 mg of Ginkgolide A per plant. One seed was planted per pot in a 1:1 mixture of North Carolina loamy sand:sand. Prior to infestation, soil was covered with parafilm to prevent insect exposure to treated soil. After emergence of the plants, each pot was infested with four 4th instar Nezara viridula insects. Insects were contained on the pots using organza fabric bags. Four replicates on different plants were made for each measurement. The mean damage protection of the corn plants was assessed 10DAT in comparison with untreated controls. For plant height, root mass, and root length, evaluation of the damage protection of the plants was carried out for each treatment as the increase from the infested solvent blank (SB) relative to the increase of the uninfested control from the infested solvent blank: (Treatment−Infested SB)/Uninfested SB−Infested SB)×100%. The results of the mean damage protection values were gathered in Table F.

[2] = test system: Nezara viridula; experiment: Soil drench on corn, mortality of Nezara viridula (Example-2); conditions: soil drench 2.5 mg active ingredient per plant, infested 3DAT, measured 7DAT
Protocol: Ginkgolide A and Bilobalide were each dissolved in a solution of 50 wt % of acetone in water and applied to the soil of corn four days after planting at a rate of 2.5 mg of the active ingredient per plant. Prior to infestation the soil was covered with parafilm to prevent insect exposure to treated soil. Each plant was infested 3DAT with four 4th instar Nezara viridula insects. Insects were contained on the plant using organza fabric bags. Four replicates on different plants were made for each measurement. The mortality of the insects was measured 7DAT. The mean mortality values were gathered in Table E.

[3] = test system: Nezara viridula; experiment: Foliar spray of maize plants, mortality of Nezara viridula (Example-1); conditions: for mortality at 100 ppm: Nezara viridula, foliar, 72 h
Protocol: Zea mays plants were grown to growth stage BBCH 12. The maize plants were then sprayed with 300 l/ha of aqueous compositions comprising either no component of the ginkgo tree, 300 ppm of ginkgolide A, or 100 ppm of bilobalide. The plants were then allowed to dry and subsequently infested with five insects (either adult, or 4th instar nymphs) of Nezara viridula. Insects were contained on the plant using mesh organza bags. Three replicates on different plants were made for each measurement. Three days after infestation, the number of live and dead insects was determined. The mean mortality values were gathered in Table D.

[4] = test system: Euschistus heros; experiment: Spray of Agrisure Viptera and Roundoup Ready 2 maize seedlings with ginkgolide A, control of Euschistus heros (Example-5); conditions: for Relative Efficacy 3DAI: Abbott's formula; for No of alive insects 3DAI: ten adult E. heros per plant
Protocol: (§1) Relative efficacy (E) values were calculated according to Abbot's formula E=[(C−G)/C]×100, wherein C is the percentage of alive insects in untreated controls, and G is the percentage of alive insects in plants treated with components of the ginkgo tree.
(§2) Agrisure™ Viptera and Roundoup Ready™ 2 Zea mays seedlings were sprayed with 1 ml of compositions comprising either no component of the ginkgo tree, or bilobalide at a concentration of 50, 100, or 150 ppm. Plants were allowed to dry and subsequently infested with ten adult insects of Euschistus heros. Three replicate measurement on different plants were made for each measurement. Six days after infestation (6DAI) number of live and dead insects was determined. The mean number of alive insects, as well as the relative efficacy values (E) according to Abbott's formula were gathered in Table G, wherein the number of alive insects in untreated controls (C) was the value of the same plant without the application of bilobalide.
Three days after infestation (3DAI) number of live and dead insects was determined. The mean number of alive insects, as well as the relative efficacy values (E) according to Abbott's formula were gathered in Table H, wherein the number of alive insects in untreated controls (C) was the value of the same plant without the application of ginkgolide A.

[5] = test system: Euschistus heros; experiment: Spray of Agrisure Viptera and Roundoup Ready 2 maize seedlings with bilobalide, control of Euschistus heros (Example-4); conditions: for Relative Efficacy 6DAI: Abbott's formula; for No of alive insects 6DAI: ten adult E. heros per plant
Protocol: as §1, §2

[6] = Agrisure Viptera maize, 10 ppm ginkgolide A
[7] = Agrisure Viptera maize, 250 ppm ginkgolide A
[8] = Roundoup Ready 2 maize, 10 ppm ginkgolide A
[9] = Roundoup Ready 2 maize, 250 ppm ginkgolide A
[10] = Agrisure Viptera maize, 50 ppm bilobalide
[11] = Agrisure Viptera maize, 100 ppm bilobalide
[12] = Agrisure Viptera maize, 150 ppm bilobalide
[13] = Roundoup Ready 2 maize, 50 ppm bilobalide
[14] = Roundoup Ready 2 maize, 100 ppm bilobalide
[15] = Roundoup Ready 2 maize, 150 ppm bilobalide

## C[C@@H]1C(=O)O[C@H]2C[C@@]34[C@H]5C[C@@H](C(C)(C)C)[C@]36[C@@H](OC(=O)[C@@H]6O)O[C@@]4(C(=O)O5)[C@]21O [Ginkgolide A]
[1]; seed treatment 0.5 mg/seed
  Mean damage protection: 64%
[1]; seed treatment 1.0 mg/seed
  Mean damage protection: 77%
[2]
  Mortality of 4th instar nymphs relative to untreated control: 100%
[3]; 300 ppm ginkgolide A, 300 l/ha spray on Zea mays BBCH 12, 4th instar N. viridula, three days after infestation
  Mortality of 4th instar nymphs: 61.5%
[3]; 300 ppm ginkgolide A, 300 l/ha spray on Zea mays BBCH 12, adult N. viridula, three days after infestation
  Mortality of Adults: 20.0%
[4]; [6]
  Relative Efficacy 3DAI: 38%
  No of alive insects 3DAI: 5.3
[4]; [7]
  Relative Efficacy 3DAI: 35%
  No of alive insects 3DAI: 5.7
[4]; [8]
  Relative Efficacy 3DAI: 14%
  No of alive insects 3DAI: 8.3
[4]; [9]
  Relative Efficacy 3DAI: 21%
  No of alive insects 3DAI: 7.7

## CC(C)(C)[C@]1(O)C[C@@H]2OC(=O)C[C@@]23C(=O)O[C@@H]2OC(=O)[C@H](O)[C@]213 [Bilobalide, (3aS,5aR,8aS,9R,10aR)-9-tert-butyl-8,9-dihydroxydihydro-9H-furo[2,3-b]furo[3′,2′;2,3]cyclopenta[1,2-c]furan-2,4,7(3H,8H)-trione]
[2]
  Mortality of 4th instar nymphs relative to untreated control: 85%
[5]; [10]
  Relative Efficacy 6DAI: 92%
  No of alive insects 6DAI: 0.7
[5]; [11]
  Relative Efficacy 6DAI: 96%
  No of alive insects 6DAI: 0.3
[5]; [12]
  Relative Efficacy 6DAI: 100%
  No of alive insects 6DAI: 0.0
[5]; [13]
  Relative Efficacy 6DAI: 83%
  No of alive insects 6DAI: 1.0
[5]; [14]
  Relative Efficacy 6DAI: 89%
  No of alive insects 6DAI: 0.7
[5]; [15]
  Relative Efficacy 6DAI: 94%
  No of alive insects 6DAI: 0.3
[3]; read-out: Mortality of 4th instar nymphs
  mortality at 100 ppm: 84.6%
[3]; read-out: Mortality of Adults
  mortality at 100 ppm: 33.3%
